We go through 2 molecules from ChEMBL document CHEMBL2440076, “New triarylpyrazoles as broad-spectrum anticancer agents: design, synthesis, and biological evaluation” (Eur J Med Chem, 2013).

What all share (type): functional
The test system of one test is NCI-H460. Nature of the test: Growth inhibition of human NCI-H460 cells assessed as cell growth at 10^-6 M after 48 hrs by sulforhodamine B assay. Particulars: NCI-H460, 48 h, read-out: Activity. On the technique in general: The SRB assay estimates cell density from bound dye.
The next test deals with SK-MEL-28. Put plainly: Growth inhibition of human SK-MEL-28 cells assessed as cell growth at 10^-5 M after 48 hrs by sulforhodamine B assay. Particulars: SK-MEL-28, 48 h, read-out: Activity.
Another test deals with CCRF-CEM. Put plainly: Growth inhibition of human CCRF-CEM cells assessed as cell growth at 10^-5 M after 48 hrs by sulforhodamine B assay. Particulars: read-out: Activity.
A further test deals with OVCAR-8. Nature of the test: Growth inhibition of human OVCAR8 cells assessed as cell growth at 10^-8 M after 48 hrs by sulforhodamine B assay. Particulars: OVCAR-8, 48 h, read-out: Activity.
The next test concerns SF-539. Put plainly: Growth inhibition of human SF539 cells assessed as cell growth at 10^-7 M after 48 hrs by sulforhodamine B assay. Particulars: SF-539, 48 h, read-out: Activity.
Another test deals with HT-29. Nature of the test: Growth inhibition of human HT-29 cells assessed as cell growth at 10^-8 M after 48 hrs by sulforhodamine B assay. Particulars: HT-29, 48 h, read-out: Activity.
The next test relates to SK-MEL-2. Put plainly: Growth inhibition of human SK-MEL-2 cells assessed as cell growth at 10^-7 M after 48 hrs by sulforhodamine B assay. Particulars: SK-MEL-2, 48 h, read-out: Activity.
A further test concerns T47D. Put plainly: Growth inhibition of human T47D cells assessed as cell growth at 10^-8 M after 48 hrs by sulforhodamine B assay. Particulars: read-out: Activity.
The subject of the next test is DU-145. Nature of the test: Growth inhibition of human DU145 cells assessed as cell growth at 10^-4 M after 48 hrs by sulforhodamine B assay. Particulars: DU-145, 48 h, read-out: Activity.
The subject of another test is A498. Nature of the test: Growth inhibition of human A498 cells assessed as cell growth at 10^-4 M after 48 hrs by sulforhodamine B assay. Particulars: A498, 48 h, read-out: Activity.
The subject of the next test is OVCAR-3. Put plainly: Growth inhibition of human OVCAR3 cells assessed as cell growth at 10^-6 M after 48 hrs by sulforhodamine B assay. Particulars: OVCAR-3, 48 h, read-out: Activity.
The next test has as its system SW-620. Nature of the test: Growth inhibition of human SW620 cells assessed as cell growth at 10^-7 M after 48 hrs by sulforhodamine B assay. Particulars: SW-620, 48 h, read-out: Activity.
The nature of test [1]: Growth inhibition of human NCI-ADR-RES cells assessed as cell growth at 10^-4 M after 48 hrs by sulforhodamine B assay. Particulars: read-out: Activity.

`COc1cc(-c2nn(-c3cccc(NC(=O)c4ccccc4)c3)cc2-c2ccncc2)ccc1Cl`: the growth at 1 µM with NCI-H460 is 17%; in the test with OVCAR-3, 4%. Further, the results for the growth at 10 µM in the test with SK-MEL-28 and with CCRF-CEM were 43% and 6%, respectively. Further, the growth at 0.01 µM turned out to be 98% in the test with OVCAR-8, 98% in the test with HT-29 and 97% in the test on T47D. For the same molecule, the growth at 0.1 µM in the test with SF-539 amounted to 91%; with SK-MEL-2, 90%; in the test with SW-620 it was 92%. In addition, the growth at 100 µM is -5% with DU-145 and -7% in the test on A498.
`COc1cc(-c2nn(-c3cccc(NC(=O)c4ccc(N5CCOCC5)c(C(F)(F)F)c4)c3)cc2-c2ccncc2)ccc1Cl`: the growth at 100 µM in test [1] was 2%; in the test on DU-145 it was 2%; in the test on A498, -24%. The growth at 1 µM in the test on NCI-H460 was determined as 16%. Further, the values for the growth at 10 µM with SK-MEL-28 and in the test on CCRF-CEM were 14% and 5%, respectively. Also, the growth at 0.01 µM in the test on OVCAR-8 turned out to be 98%; in the test on HT-29, 98%; with T47D, 102%. For the same molecule, the values for the growth at 0.1 µM with SF-539, in the test with SK-MEL-2 and in the test on SW-620 were 68%, 73% and 58%, respectively.
